Laboratory results: patent US7012041B2, “Phenylpyridazinones” (Bayer AG, priority 1995, dated 2006)

Legend:
Type in all cases: in vivo
Abutilon = assay: Pre-emergence test/greenhouse; settings: for % damage Abutilon: after three weeks; for activity against Abutilon (% damage): application rate between 125 and 500 g/ha, span over the named compounds
Protocol: (§1) • Solvent: 5 parts by weight of acetone • Emulsifier: 1 part by weight of alkylaryl polyglycol ether
(§2) To produce a suitable preparation of active compound, 1 part by weight of active compound is mixed with the stated amount of solvent, the stated amount of emulsifier is added and the concentrate is diluted with water to the desired concentration.
(§3) Seeds of the test plants are sown in normal soil. After 24 hours, the soil is watered or sprayed with the preparation of the active compound. It is advantageous to keep the amount of water per unit area constant. The concentration of the active compound in the preparation is immaterial, only the amount of active compound applied per unit area matters.
(§4) After three weeks, the degree of damage to the plants is rated in % damage by comparison with the development of the untreated control.
(§5) The figures denote: • 0%=no effect (like untreated control) • 100%=total destruction

Chenopodium [1] = assay: Pre-emergence test/greenhouse; settings: after three weeks
Protocol: as §1, §2, §3, §4, §5

Maize = assay: Pre-emergence test/greenhouse; settings: after three weeks
Protocol: as §1, §2, §3, §4, §5

Solanum = assay: Pre-emergence test/greenhouse; settings: after three weeks
Protocol: as §1, §2, §3, §4, §5

Sunflower = assay: Pre-emergence test/greenhouse; settings: after three weeks
Protocol: as §1, §2, §3, §4, §5

Galinsoga = assay: Pre-emergence test/greenhouse; settings: after three weeks
Protocol: as §1, §2, §3, §4, §5

Amaranthus = assay: Post-emergence test/greenhouse; settings: after three weeks
Protocol: as §1, §2
(§6) Test plants which have a height of 5–15 cm are sprayed with the preparation of the active compound in such a way as to apply the particular amounts of active compound desired per unit area.
as §4, §5

Chenopodium [2] = assay: Post-emergence test/greenhouse; settings: after three weeks
Protocol: as §1, §2, §6, §4, §5

Datura = assay: Post-emergence test/greenhouse; settings: after three weeks
Protocol: as §1, §2, §6, §4, §5

Polygonum = assay: Post-emergence test/greenhouse; settings: after three weeks
Protocol: as §1, §2, §6, §4, §5

Veronica = assay: Post-emergence test/greenhouse; settings: after three weeks
Protocol: as §1, §2, §6, §4, §5

Wheat = assay: Post-emergence test/greenhouse; settings: after three weeks
Protocol: as §1, §2, §6, §4, §5

Structure (SMILES) | % damage Abutilon (Abutilon; 500 g ai/ha) | % damage Chenopodium (Chenopodium [1]; 500 g ai/ha) | % damage Maize (Maize; 500 g ai/ha) | % damage Solanum (Solanum; 500 g ai/ha) | % damage Sunflower (Sunflower; 500 g ai/ha) | % damage Galinsoga (Galinsoga; 500 g ai/ha) | % damage Abutilon (Abutilon; 250 g ai/ha) | activity against Abutilon (% damage) (Abutilon) | % damage Galinsoga (Galinsoga; 250 g ai/ha) | % damage Maize (Maize; 250 g ai/ha) | % damage Solanum (Solanum; 250 g ai/ha) | other results
Nc1cnn(-c2ccccc2)c(=O)c1Cl [(A), 5-Amino-4-chloro-2-phenyl-pyridazin-3-one, reference compound] | 20% | 50% | 0% | 40% | 100% |  |  |  |  |  |  | 
Cc1cnn(-c2ccccc2)c(=O)c1Br [(B), 4-Bromo-5-methyl-2-phenyl-pyridazin-3-one, reference compound] | 0% | 50% | 0% | 50% | 0% | 30% |  |  |  |  |  | % damage Amaranthus (Amaranthus; 250 g ai/ha): 30%; % damage Chenopodium (Chenopodium [2]; 250 g ai/ha): 50%; % damage Datura (Datura; 250 g ai/ha): 80%; % damage Polygonum (Polygonum; 250 g ai/ha): 50%; % damage Veronica (Veronica; 250 g ai/ha): 40%; % damage Wheat (Wheat; 250 g ai/ha): 30%
Cc1cnn(-c2cc(F)c(C#N)cc2F)c(=O)c1 [Example 3, 2-(2,5-difluoro-4-cyano-phenyl)-5-methyl-pyridazin-3-one] |  |  |  |  |  |  | 100% | 100% | 100% | 0% | 90% | % damage Sunflower (Sunflower; 250 g ai/ha): 0%
C#CCOc1cc(-n2nc(C)ccc2=O)c(F)cc1C#N [Example 7, 2-(2-fluoro-4-cyano-5-propargyloxy-phenyl)-6-methyl-pyridazin-3-one] |  |  |  |  |  |  | 100% | 100% | 95% | 0% | 100% | % damage Chenopodium (Chenopodium [1]; 250 g ai/ha): 100%; % damage Sunflower (Sunflower; 250 g ai/ha): 20%
C#CC(C)Oc1cc(-n2ncc(C)cc2=O)c(F)cc1C#N (stereo not drawn) [Example 8, 2-(2-fluoro-4-cyano-5-but-1-ine-3-yl-oxy-phenyl)-5-methyl-pyridazin-3-one] |  |  |  |  |  |  | 100% | 100% | 100% | 0% | 100% | % damage Chenopodium (Chenopodium [1]; 250 g ai/ha): 100%; % damage Sunflower (Sunflower; 250 g ai/ha): 0%; % damage Amaranthus (Amaranthus; 60 g ai/ha): 90%; % damage Chenopodium (Chenopodium [2]; 60 g ai/ha): 95%; % damage Datura (Datura; 60 g ai/ha): 100%; % damage Polygonum (Polygonum; 60 g ai/ha): 100%; % damage Veronica (Veronica; 60 g ai/ha): 100%; % damage Wheat (Wheat; 60 g ai/ha): 0%
CCS(=O)(=O)Nc1cc(-n2nc(C)ccc2=O)c(F)cc1C#N [Example 15] | 100% | 100% | 0% | 95% | 0% | 80% |  | 100% |  |  |  | % damage Amaranthus (Amaranthus; 250 g ai/ha): 100%; % damage Chenopodium (Chenopodium [2]; 250 g ai/ha): 95%; % damage Datura (Datura; 250 g ai/ha): 90%; % damage Polygonum (Polygonum; 250 g ai/ha): 80%; % damage Veronica (Veronica; 250 g ai/ha): 95%; % damage Wheat (Wheat; 250 g ai/ha): 5%
C#CC(C)Oc1cc(-n2nc(C)ccc2=O)c(F)cc1C#N (stereo not drawn) [Example 16] | 100% | 100% | 10% | 100% | 20% | 100% |  | 100% |  |  |  | % damage Amaranthus (Amaranthus; 60 g ai/ha): 100%; % damage Chenopodium (Chenopodium [2]; 60 g ai/ha): 95%; % damage Datura (Datura; 60 g ai/ha): 100%; % damage Polygonum (Polygonum; 60 g ai/ha): 95%; % damage Veronica (Veronica; 60 g ai/ha): 90%; % damage Wheat (Wheat; 60 g ai/ha): 5%
CCS(=O)(=O)Nc1cc(-n2ncc(NC)c(Cl)c2=O)c(F)cc1C#N [Example 25] | 100% | 90% | 0% | 60% |  | 100% |  | 100% |  |  |  | 
C#CC(CC)Oc1cc(-n2nc(C)ccc2=O)c(F)cc1C#N (stereo not drawn) [Example 29] | 100% | 100% | 0% | 100% | 0% | 100% |  | 100% |  |  |  | 
CCS(=O)(=O)Nc1cc(-n2ncc(C)cc2=O)c(F)cc1C#N [Example 31] |  |  |  |  |  |  | 100% | 100% | 80% | 0% | 100% | % damage Sunflower (Sunflower; 250 g ai/ha): 0%; % damage Amaranthus (Amaranthus; 60 g ai/ha): 100%; % damage Chenopodium (Chenopodium [2]; 60 g ai/ha): 80%; % damage Datura (Datura; 60 g ai/ha): 100%; % damage Polygonum (Polygonum; 60 g ai/ha): 90%; % damage Veronica (Veronica; 60 g ai/ha): 90%; % damage Wheat (Wheat; 60 g ai/ha): 5%
CCS(=O)(=O)Nc1cc(-n2ncc(C)cc2=O)c(Cl)cc1Cl [Example 34] | 100% | 100% | 0% | 90% | 20% | 100% |  | 100% |  |  |  | 
C#CC(CC)Oc1cc(-n2ncc(C)cc2=O)c(F)cc1C#N (stereo not drawn) [Example 35] |  |  |  |  |  |  | 100% | 100% | 100% | 0% | 100% | % damage Chenopodium (Chenopodium [1]; 250 g ai/ha): 100%; % damage Amaranthus (Amaranthus; 60 g ai/ha): 95%; % damage Chenopodium (Chenopodium [2]; 60 g ai/ha): 95%; % damage Datura (Datura; 60 g ai/ha): 100%; % damage Polygonum (Polygonum; 60 g ai/ha): 90%; % damage Veronica (Veronica; 60 g ai/ha): 95%; % damage Wheat (Wheat; 60 g ai/ha): 20%
Cc1cnn(-c2cc(OC(C)C)c(C#N)cc2F)c(=O)c1 [Example 36] |  |  |  |  |  |  | 100% | 100% | 90% | 10% | 100% | % damage Chenopodium (Chenopodium [1]; 250 g ai/ha): 100%
C#CCOc1cc(-n2ncc(C)cc2=O)c(F)cc1C#N [Example 37] |  |  |  |  |  |  |  |  |  |  |  | % damage Amaranthus (Amaranthus; 125 g ai/ha): 100%; % damage Chenopodium (Chenopodium [2]; 125 g ai/ha): 100%; % damage Datura (Datura; 125 g ai/ha): 100%; % damage Polygonum (Polygonum; 125 g ai/ha): 100%; % damage Veronica (Veronica; 125 g ai/ha): 100%; % damage Wheat (Wheat; 125 g ai/ha): 20%
C#CCOc1cc(-n2ncc(N(C)C)c(Cl)c2=O)c(F)cc1C#N [Example 41] |  |  |  |  |  |  |  | 100% |  |  |  | % damage Abutilon (Abutilon; 125 g ai/ha): 100%; % damage Chenopodium (Chenopodium [1]; 125 g ai/ha): 100%; % damage Galinsoga (Galinsoga; 125 g ai/ha): 100%; % damage Maize (Maize; 125 g ai/ha): 10%; % damage Solanum (Solanum; 125 g ai/ha): 100%; % damage Sunflower (Sunflower; 125 g ai/ha): 0%; % damage Amaranthus (Amaranthus; 250 g ai/ha): 60%; % damage Chenopodium (Chenopodium [2]; 250 g ai/ha): 90%; % damage Datura (Datura; 250 g ai/ha): 100%; % damage Polygonum (Polygonum; 250 g ai/ha): 100%; % damage Veronica (Veronica; 250 g ai/ha): 100%; % damage Wheat (Wheat; 250 g ai/ha): 20%
